# Laboratory results taken from patent US11730717B1, “Melanin-inspired antimicrobial” (The Board of Regents for the Oklahoma Agricultural and …, priority 2020, dated 2023).
# How the values were obtained:
# [1] = test system: Candida albicans strain SC5314; experiment: Antifungal MIC assay; format: cell-based; conditions: 35° C., 48 hrs, RPMI with MOPS
# Procedure: (§1) Cryptococcus neoformans serotype A strain H99 as well as Candida ablicans strain SC5314, were readily available in the lab. The stock of cells is stored at −80° C. to preserve the fungi and prevent contamination. The cells were grown and maintained in yeast extract-peptone-dextrose (YPD) media (Difco). Cryptococcus or Candida cells were incubated in YPD broth for 18 hrs at 30° C., in a shaking incubator. After the incubation period, they were washed three times in sterile phosphate-buffered saline (PBS) to remove all remaining residue of YPD. The cells were then quantified by using trypan blue dye exclusion in a hemocytometer.
# (§2) C. albicans were suspended in RPMI with MOPS, 0.165M, at a concentration of 0.5×10^3 cells/mL. RPMI Mops media was added to a 96-well plate in a volume of 100 μL to every well, with the exception of column 1. An additional 80 μL of RPMI MOPS was added to column 4 for a total of 180 μL/per well. EIPE-1 was added to columns 2 and 4 with a volume of 20 μL at a concentration of 1 mg/mL. Contents were mixed, then serially diluted 100 μL down the plate until column 11. The last 100 μL was discarded, leaving column 12 blank. C. albicans was added at a volume of 100 μL per well from column 4 to column 12, so the final volume of the wells was 200 μL. Plates were incubated at 35° C. in a humid incubator for 48 hrs.
# [2] = test system: Cryptococcus neoformans serotype A strain H99; experiment: Antifungal MIC assay; format: cell-based
# Procedure: as §1
# as §2, with “neoformans” for “albicans”, “MOPS” for “Mops”, “well. Amphotericin B or” for “well.”
# [3] = test system: methicillin resistant Staphylococcus aureus (MRSA) clinical isolate; experiment: MIC by broth microdilution; format: cell-based; conditions: clinical isolate of MRSA from an adult CF patient; broth culture, 18 h at 37° C.
# Procedure: The methicillin resistant Staphylococcus aureus (MRSA) and Pseudomonas aeruginosa (PA) strains used in this study are clinical isolates obtained from an adult CF patient at the Cystic Fibrosis Clinic at the OU Children's Hospital (Oklahoma City, Okla.). Escherichia coli (E. coli) and Enterococcus faecalis (E. faecalis) were obtained from American Type Culture Collection (ATCC). The strains were grown overnight with shaking at 37° C. (220 RPM) in 15 mL of Luria-Bertani (LB) broth. The overnight culture was sub-cultured the next day before use for the MIC experiments. All sub-cultures consisted of 1 mL of the overnight culture, mixed with 10 mL of Mueller Hinton broth. The working stock of the EIPE-1 and DBI was prepared by dissolving 1 mg of each in 1 mL of DMSO.
# The minimum inhibitory concentrations (MICs) were determined by the broth microdilution method, following the guidelines of the Clinical and Laboratory Standards Institute (CLSI). Two-fold serial dilutions of EIPE-1, DBI, and Arm (starting with 1 mg/mL) were prepared in a 100 μL volume in 96-well microtiter plates. The dilution series included DMSO as a negative control. The bacterial culture […] was normalized to an OD600 of 0.2 and was then added to each well. Plates were incubated with shaking at 220 RPM at 37° C., and the MIC was determined based on the lowest concentration at which no visible growth of the bacterial isolate was observed.
# In order to determine the MIC of EIPE-1 on MRSA, a culture of MRSA was grown overnight in Mueller Hinton broth (MHB) at 37° C., sub-cultured by a 1/100 dilution into MHB and dispensed into a 96 well culture block (900 μL of diluted culture in each well). To each well either DMSO or a serial dilution of EIPE-1 was added, then the culture was grown for 18 h at 37° C. The next day each well was tested for either growth or inhibition of growth by measuring of the OD^600 of the resulting culture. […] For comparison, the MIC of EIPE-1 was also determined against E. faecalis (8 μg/mL, 9 μM), confirming activity against Gram-positive bacteria.
# HeLa cells = experiment: Cytotoxicity, LDH leakage assay; format: cell-based; conditions: 24-hour exposure, 250 μg/mL (610 μM)
# Procedure: HeLa cells were cultured in 96-well plates at 37° C. and 5% CO2 in Roswell Park Memorial Institute (RMPI) 1640 medium with 5% Fetal Bovine Serum (FBS). Once HeLa cells reached 95% confluency, the media was replaced with media containing various concentrations of EIPE-1, DBI or DMSO for 24 hours. Cell cytotoxicity was measured using the lactate dehydrogenase (LDH) leakage assay. Results were compared to maximum values of lysed cells in control wells and were graphed as percent relative cytotoxicity using Prism 5.0.
# Host cell cytotoxicity against HeLa cells was examined for both DBI and EIPE-1 (FIG. 2B). LDH release was examined after 24-hour exposure to varying concentrations of DBI, DMSO and EIPE-1. […] Thus, EIPE-1 is relatively safe to use with respect to eukaryotic cells.
# MRSA [4] = experiment: Live/Dead staining and fluorescent microscopy; format: cell-based, Staphylococcus aureus; conditions: 16 μg/mL, 17 μM, 30 minutes; Syto 9 and propidium iodide
# Procedure: MRSA was grown overnight in 10 mL of LB broth, sub-cultured (5 mL of overnight culture added to 20 mL LB) and grown for 3 h. Bacterial culture (150 μL) were removed and transferred to a 1.5 mL centrifuge tube, which was treated with DMSO, EIPE-1 (0.01 mg/mL) or DBI (0.01 mg/mL) for 30 minutes. Equal amounts of the two dyes (SYTO 9 dye, 3.34 mM in DMSO), and propidium iodide (20 mM in DMSO) were mixed. Then 0.5 μL of the dye mixture was added to each tube of treated MRSA cultures. Wet mounts were prepared on glass slides for imaging live and dead MRSA, and Differential Interference Contrast (DIC) images were obtained using a Leica DMI600B fluorescent microscope. To determine the percentage of bacteria alive and dead, the total bacteria in each condition were counted in 20 fields of view and graphed using Prism 5.0.
# To address MRSA viability in response to EIPE-1 treatment, a Live/Dead staining and microscopy was utilized. MRSA was treated with either DBI or EIPE-1 (16 μg/mL, 17 μM each) for 30 minutes (DMSO was used as a negative solvent control) and then stained with the dyes, Syto™ 9 and propidium iodide.
# MRSA [5] = experiment: Recoverable CFU after exposure to DBI; format: cell-based, Staphylococcus aureus; conditions: MRSA after 4 h of growth with DBI; DMSO control average 1.78×10^8
# Procedure: To determine CFUs of PA and MRSA after exposure to DMSO, DBI, EIPE-1, Gentamicin or Methicillin, 10-fold serial dilutions were prepared in 96-well micro plates using multichannel pipettes. For each dilution, 25 ptL of each sample was pipetted onto a plate containing agar medium and incubated for 18 h at 37° C. The number of colonies for each dilution were counted and used to back calculate the number of bacteria per mL (CFU/mL) in each original bacterial culture.
# After 4 h of growth, the resulting cultures were plated onto Mannitol Salts Agar (MSA). Decreased bacterial growth and decreased fermentation of the Mannitol (retention of the reddish hue of the MSA plate) could be seen in the MRSA culture exposed to DBI (FIG. 1A) which was confirmed with decreased recoverable CFUs (FIGS. 1B and 1C).
# MRSA [6] = experiment: Kirby-Bauer disc diffusion assay; format: cell-based, Staphylococcus aureus
# Procedure: The susceptibility of MRSA to EIPE-1 was determined by the Kirby-Bauer disc diffusion method. Using a cotton swab applicator, a lawn of the S. aureus clinical isolate was placed onto Mueller Hinton agar plates to cover the entire surface of the plate. Filter discs (size=6 mm) were added onto the bacterial lawn. EIPE-1, DBI, and DMSO (10 μL each) were then added onto the filter discs.
# The efficacy of compound EIPE-1 was tested by the Kirby-Bauer disc assay. The Kirby-Bauer disc assay assesses the sensitivity of bacteria to antimicrobial agents. If the bacteria are sensitive to the antimicrobial being tested, then a zone of inhibition of bacterial growth is seen around the filter disc containing the antimicrobial. The Kirby-Bauer disc assay was used to test the antimicrobial efficacy of EIPE-1 against MRSA. EIPE-1 was reconstituted at 1 mg/mL in DMSO and serially diluted (10^−1 to 10^−5) after which 10 μL of each dilution (and DMSO as a solvent control) was added to a separate disc on an LB plate inoculated with a lawn of bacteria. The plates were incubated at 37° C. for 24 h, and the resulting radii zone sizes around each disc were then measured.
structure (smiles),measurement,setting,value
"C[C@@H]1[C@H](O)[C@@H](C)/C=C/C=C/C=C/C=C/C=C/C=C/C=C/[C@H](O[C@@H]2O[C@H](C)[C@@H](O)[C@H](N)[C@@H]2O)C[C@@H]2O[C@](O)(C[C@@H](O)C[C@@H](O)[C@H](O)CC[C@@H](O)C[C@@H](O)CC(=O)O[C@H]1C)C[C@H](O)[C@H]2C(=O)O [Amphotericin B, reference compound]",Minimum inhibitory concentration (MIC) for the isolate of C. albicans,[1],0.5606 ± 0.1219 µg/mL
same,Minimum inhibitory concentration (MIC) for the isolate of C. neoformans,"[2]; 35° C., 48 hrs, RPMI with MOPS",0.6825 ± 0.2925 µg·mL
same,"minimum inhibitory concentration average, C. neoformans",[2]; across four experiments,0.6 µg/mL
"COC(=O)c1cc2c(Br)c(OC)c(OC)c(Br)c2n1C [DBI, methyl 4,7-dibromo-5,6-dimethoxy-1-methyl-1H-indole-2-carboxylate]",minimum inhibitory concentration (MIC),[3],could not be determined
same,cytotoxicity (LDH release),HeLa cells,30%
same,"Live/Dead staining (green = intact membrane, red = damaged membrane)",MRSA [4],mostly stained green
same,recoverable CFUs (average),MRSA [5],1.19×10^7 CFU/mL
CN(C)CCCOc1ccc(I)cc1 [arms],antimicrobial activity independent of the DBI core,MRSA [6],did not exhibit any antimicrobial activity
